Patent US20140316007A1 (RICHTER GEDEON NYRT., priority 2011, published 2014)
Read-outs that look alike come from different tables or passages of the source.

Key:
[1] = mouse diet-induced obesity (DIO) test, weight loss; type: in vivo; settings: two weeks, obese C57B16 mice
Experimental: The experiments were performed using a diet-induced obesity (DIO) test. The DIO test is a widely accepted animal model of human obesity well mimicking the development and course of the disease, its comorbidities as well as its response to pharmacological medications (Hariri and Thibault Nutr. Res. Rev. 23:270-299 2010). Young (22-25 g) male C57B16 mice were fed with high-fat diet (e.g. D12492, Research Diets Inc., New Brunswick, N.J., USA), thus these animals became obese compared to mice kept on a control diet. The body weights of control and obese mice were 31.84±0.89 and 45.74±0.78 g, respectively, in the first experiment (n=8 per group, mean±SEM). These values were 30.47±0.58 and 45.38±0.61 g (n=20 per group) in the second experiment, and 27.61±0.34 and 41.00±0.91 (n=8 per group) in the third experiment (Study 2). Then the animals were assigned to different groups and treated with different vehicles or test compounds. Test compounds were dissolved in water and administered per os twice daily in a volume of 10 ml/kg of body weight. The animals were weighed daily during the experiments. The percent weight loss of each animal compared the baseline body weight was calculated at the end of the two-week-long experiment. The average percent weight change of the vehicle group was subtracted from the percent weight change of each animal, thus the vehicle-corrected weight loss was calculated. The statistical evaluation of results included descriptive statistics (mean and standard error). Furthermore, statistical significance of differences between groups was evaluated using one-way or factorial ANOVA test followed by Duncan's post-hoc test. Interactions between different treatments (i.e. combination of drugs) were evaluated using factorial ANOVA test.
Baclofen caused a body weight loss of 3.2%, which was statistically non-significant. […] The doses shown in FIG. 1 were administered per os twice daily. The results are shown as mean±SE of percent vehicle-corrected weight loss. There were no statistical differences between the other three groups. (Number of animals: n=8 per group, except the memantine group, where n=7.)
We have also tested the combination of phentermine and baclofen. In the study investigating the effects of 2.5 mg/kg phentermine and 2 mg/kg baclofen, both drugs decreased the body weight moderately (by 5.4% and 3.6%, respectively). […] There was no significant difference between the groups (including the vehicle group as well). […] Data in FIG. 3 are presented as mean±SE of percent vehicle-corrected weight loss.

[2] = rotarod test in mice; settings: male, NMRI, mouse, in vivo, po
Text: The rotarod test is a widely used simple and objective method to detect the side effects affecting motor function in rodents. This method is also capable for sensitive detection of a central muscle relaxant effect, which is a pharmacological feature of both memantine and baclofen (Farkas et al. J. Pharmacol. Toxicol. Methods 52:264-273 2005). However, other CNS side effects (e.g. sleepiness, disturbances in coordination) also impair rotarod performance. Therefore this method was used to assess liability of the combination memantine and baclofen to produce unwanted side effects.
Mice were placed on a rod rotating with a constant speed of 12 rpm. After training, i.e. after habituation to the rotarod three times for 120 seconds on the previous day, the mice are usually able to run on the rod for 120 seconds without falling down. Immediately before the treatment with the test compounds, the mice were tested and only those able to stay on the rod for 120 seconds were involved to the experiment. Test compounds were dissolved in distilled water (vehicle) and administered orally to groups of ten male NMRI mice (20-24 g). One group was treated with vehicle in each experimental session. […] We calculated the mean latency to fall in each group and the percent change relative to the latency in the vehicle group. […]

[3] = spontaneous horizontal motor activity of mice (LABORAS); type: in vivo; settings: 12-hour light phase, C57B16J mice
Text: NMDA receptor antagonists are known to cause dose-dependent behavioral activation in rodents, which is manifested in increased locomotor activity (Sukhanov et al. Behav. Pharmacol. 15:263-271 2004). This behavior may correspond to side effects observed in the clinical practice, such as agitation and restlessness, which are rarely seen with memantine. We have studied the modulating effect of baclofen on the locomotor activity increasing effect of memantine when administered to mice in combination. Groups of male C57B16J mice (25-32 g; Wobe-Harlan, Hungary; 8-10 mice/group) were treated orally with 2 mg/kg baclofen, 2.5 mg/kg memantine or their combination or vehicle (distilled water) twice daily during the light phase of diurnal light-dark cycle. After one day of habituation, the activity of the animals was recorded continuously for 24 hours on the first and 14th day of treatment using an automated behavioral activity measurement system (LABORAS, Metris, Netherlands). However, only the data from the light phase (12 hours) are shown. The animals were housed individually during the whole experiment in their home cages, which enabled the activity recording as well. The mechanical vibrations and gravity related static signals evoked by the movement of the animals were transformed to an electrical signal by the system, and these recorded signals were evaluated off-line by a computer algorithm (Quinn et al. J. Neurosci. Methods 130:83-92 2003). The behavior of the mice was categorized by the software as locomotor activity, immobility, climbing and grooming. […] Statistical analysis was performed using ANOVA followed by Tukey's post hoc test. The statistical significance of effects of drug treatments was calculated compared to vehicle and also compared to other drug-treated groups.

[4] = 30 mg/day, 12 weeks, cited from earlier work
[5] = targeted dose 60 mg/day, within 10 weeks, binge eating patients; cited from earlier work
[6] = cited from earlier work
[7] = recommended dosing regimen; cited from earlier work
[8] = dose gradually increased to 20 mg/day, 16 obese binge eater patients; cited from earlier work

SMILES: NCC(CC(=O)O)c1ccc(Cl)cc1 (racemic) [baclofen]
- vehicle-corrected body weight loss ([1]; Study 1, first experiment, 2 mg/kg baclofen per os twice daily): 3.2%
- vehicle-corrected body weight loss ([1]; Study 2, 2 mg/kg baclofen per os twice daily): 3.6%
- ED50 at 60 min [2]: 18.3 ± 3.3 mg/kg
- horizontal motor activity vs vehicle ([3]; 2 mg/kg baclofen orally twice daily, 14th day of treatment): neither baclofen alone, nor the combination altered the motor activity
- horizontal motor activity vs vehicle ([3]; 2 mg/kg baclofen orally twice daily, first day of treatment): neither baclofen alone, nor the combination altered the motor activity
- mean body weight loss ([4]; 10 obese patients): 1.7%
- participants (out of 10) who lost more than 5% body weight [4]: one
- mean body weight increase [5]: 0.9 kg

SMILES: C[C@H]1CNCCc2ccc(Cl)cc21 [lorcaserin]
- weight loss relative to baseline ([6]; after 1-year-long treatment): 5.8%
- weight loss relative to baseline ([6]; at 12 weeks): 3.5-4%

SMILES: CC12CC3CC(C)(C1)CC(N)(C3)C2 [memantine]
- vehicle-corrected body weight loss ([1]; Study 1, first experiment, 2.5 mg/kg memantine per os twice daily): 0.1%
- ED50 at 60 min [2]: 16.1 ± 1.7 mg/kg
- horizontal motor activity vs vehicle ([3]; 2.5 mg/kg memantine orally twice daily, 14th day of treatment): statistically significantly (p<0.05) increased
- horizontal motor activity vs vehicle ([3]; 2.5 mg/kg memantine orally twice daily, first day of treatment): did not reach statistical significance
- side effect rate: dizziness [7]: 0.8%
- side effect rate: nausea [7]: 0.9%
- side effect rate: restlessness [7]: 1.3%
- side effect rate: tiredness [7]: 0.4%
- effect on binge episodes and body weight [8]: decreased the number of binge episodes but not the body weight

SMILES: CC(C)(N)Cc1ccccc1 [phentermine]
- vehicle-corrected body weight loss ([1]; Study 2, 2.5 mg/kg phentermine per os twice daily): 5.4%
